Measured values: patent publication US20150044346A1, “USE OF OXAZOLINES AS AROMA/FLAVOUR PRECURSORS” (NESTEC S.A., priority 2012, published 2015)
Values joined by “and” are separate entries in the source; they are usually repeats but may differ in a detail not shown here. Equal values may be shown once. One block for each molecule: values may come before it.

How the values were obtained:
Format in all cases: physicochemical
[1] = Release of Strecker aldehyde from 3-oxazoline precursor stirred in water at 37° C. (stable isotope dilution, HS-GC-MS / GC-MS); conditions: for isomer I (unreacted) (mol %) / isomer II (formed) (mol %): starting from isomer I; for isomer I (formed) (mol %) / isomer II (unreacted) (mol %): starting from isomer II
[2] = Headspace GC-MS release of Strecker aldehydes from spiked chocolate on addition of saliva; conditions: headspace injection; for Concentration in “release sample” (after addition of saliva): spiked chocolate 2 g + saliva 2 mL, 5 min at 37° C.; for Concentration in blank sample (prior addition of saliva): spiked chocolate 2 g melted at 37° C.
Procedure: To further confirm the PTR-MS data, all experiments are repeated using a headspace GC-MS system. Commercial chocolate (50% of cocoa content) was frozen in liquid nitrogen and ground to a powder using a mixer. An aliquote (25 g) was melted at 35° C. using a water bath and [^2H6]-methylpropanal, [^2H2]-3-methylbutanal as well as [^13C2]-phenylacetaldehyde were added. After stirring for 5 min, the chocolate was cooled to room temperature and used for all further headspace experiments (“spiked chocolate”). The newly spiked chocolate (2 g) was weighed into a headspace vial (10 mL; sealed with a gastight septum) containing a stirring bar. The chocolate was melted at 37° C. for 5 min under stirring. Then, the first injection (1 mL) was done at 37° C. used as blank sample. Afterwards, the sample was cooled to approx. 16° C. After 30 min, saliva (2 mL) was added through the septum via a syringe, and the sample was again warmed to 37° C. under stirring. After a further 5 min, the second injection (1 mL) was done again at 37° C. (“release sample”). All experiments were done in triplicates. 2-Methylbutanal was quantified using [^2H2]-3-methylbutanal.

[3] = PTR-MS release of Strecker aldehydes from spiked chocolate on addition of water or saliva; conditions: spiked chocolate 5 g, water (5 mL, pH 4) or saliva (5 mL), 37° C.; FIG. 2, FIG. 3
Procedure: Commercial chocolate (50% of cocoa content) was frozen in liquid nitrogen and ground to a powder using a mixer. An aliquote (50 g) was melted at 35° C. using a water bath and [^2H2]-3-methylbutanal as well as [^13C2]-phenylacetaldehyde were added. After stirring for 5 min, the chocolate was cooled to room temperature and used for all further PTR-MS experiments (“spiked chocolate”).
5.0 g of spiked chocolate was weighed into an iodine flask (200 mL; sealed with a gastight septum) containing a stirring bar. The chocolate was melted at 37° C. for 5 min under stirring. Afterwards, the flask was connected to a PTR-MS instrument via a peek capillary (experiments were done at 37° C.). After defined time (details are given in the respective figures via number of cycles), water (5 mL, pH 4) or saliva (5 mL), respectively, was singly added through the septum via a syringe.
As blank, methylpropanal (2.5 μg), 3-methylbutanal (6.25 μg), phenylacetaldehyde (25 μg), [^2H2]-3-methylbutanal (4.3 μg), and [^13C2]-phenylacetaldehyde (20 μg) were added to sunflower oil (10 g) in an iodine flask (200 mL). Following parameters are used for PTR-MS measurement: inlet temperature 120° C., chamber temperature 80° C., inlet flow 70 mL/min. The mass traces and the dwell time used to monitor Strecker aldehydes are shown below: […]

[4] = Impact of pH value on release of Strecker aldehyde from 3-oxazoline precursor in buffer solution at 37° C.
Procedure: (§1) 2-(2-Methylpropyl)-5-methyl-3-oxazoline (dissolved in pentane/diethyl ether; 2 mL) was added to ethanol (0.5 mL). The pentane/diethyl ether was carefully evaporated, and finally made up to 5 mL with ethanol. […] A control experiment was performed with 2-(2-methylpropyl)-5-methyl-3-oxazoline and the respective standard without adding the respective buffer solution. For headspace measurements, the samples were directly subjected to HS-GC-MS. For liquid measurements, the samples were cooled in an ice bath and extracted with diethyl ether (3×15 mL; liquid-liquid extraction). The organic phases were combined, dried over anhydrous sodium sulphate, and the solvent was distilled off (20° C., 500 mbar) to about 4 mL. An aliquot (2 μL) was used for the stable isotope dilution assays ((GC-) GC-MS).
as §1, with “2-Methylphenyl-5-methyl-3-oxazoline” for “2-(2-Methylpropyl)-5-methyl-3-oxazoline”, “2-methylphenyl-5-methyl-3-oxazoline” for “2-(2-methylpropyl)-5-methyl-3-oxazoline”

[5] = 5 min, stirred in water at 37° C.
[6] = 15 min, stirred in water at 37° C.
[7] = 30 min, stirred in water at 37° C.
[8] = Control experiment without addition of water
[9] = Control experiment without addition of water, in relation to amount of precursor used
[10] = Control without addition of water

- phenylacetaldehyde (mol %) generated from precursor [1, 5]: 16.6 mol %
- isomer I (unreacted) (mol %) ([1]; 5 min, water 37° C.): 31.8 mol %
- isomer II (formed) (mol %) ([1]; 5 min, water 37° C.): 7.1 mol %
- phenylacetaldehyde (mol %) generated from precursor [1, 6]: 23.1 mol %
- isomer I (unreacted) (mol %) ([1]; 15 min, water 37° C.): 31.1 mol %
- isomer II (formed) (mol %) ([1]; 15 min, water 37° C.): 6.3 mol %
- phenylacetaldehyde (mol %) generated from precursor [1, 7]: 42.5 mol %
- isomer I (unreacted) (mol %) ([1]; 30 min, water 37° C.): 22.3 mol %
- isomer II (formed) (mol %) ([1]; 30 min, water 37° C.): 5.8 mol %
- phenylacetaldehyde (mol %) generated from precursor [1, 8]: 0.2 mol %
- isomer I (unreacted) (mol %) [1, 10]: 98.0 mol %
- isomer II (formed) (mol %) [1, 10]: 2.0 mol %
- corresponding isomer II formed from purified isomer I ([1]; after 5 min, water 37° C.): 7%
- phenylacetaldehyde liberated ([1]; after 5 min, water 37° C.): 17%
- phenylacetaldehyde liberated ([1]; after 15 min, water 37° C.): > 20%
- phenylacetaldehyde liberated ([1]; after 30 min, water 37° C.): > 40% and 43%
SMILES: Cc1ccccc1C1N=CC(C)O1 (single isomer, unassigned; isomer i) [2-methylphenyl-5-methyl-3-oxazoline isomer I, 2-methylphenyl-5-methyl-3-oxazoline]

- phenylacetaldehyde (mol %) generated from precursor [1, 5]: 17.2 mol %
- phenylacetaldehyde (mol %) generated from precursor ([1]; 5 min, stirred in water at 37° C., listed as 2-methylphenyl-5-methyl-2-oxazoline isomer II): 17.2 mol %
- isomer I (formed) (mol %) ([1]; 5 min, water 37° C.): 9.0 mol %
- isomer II (unreacted) (mol %) ([1]; 5 min, water 37° C.): 28.6 mol %
- phenylacetaldehyde (mol %) generated from precursor [1, 6]: 32.2 mol %
- phenylacetaldehyde (mol %) generated from precursor ([1]; 15 min, stirred in water at 37° C., listed as 2-methylphenyl-5-methyl-2-oxazoline isomer II): 32.2 mol %
- isomer I (formed) (mol %) ([1]; 15 min, water 37° C.): 5.4 mol %
- isomer II (unreacted) (mol %) ([1]; 15 min, water 37° C.): 26.0 mol %
- phenylacetaldehyde (mol %) generated from precursor [1, 7]: 46.5 mol %
- phenylacetaldehyde (mol %) generated from precursor ([1]; 30 min, stirred in water at 37° C., listed as 2-methylphenyl-5-methyl-2-oxazoline isomer II): 46.5 mol %
- isomer I (formed) (mol %) ([1]; 30 min, water 37° C.): 2.7 mol %
- isomer II (unreacted) (mol %) ([1]; 30 min, water 37° C.): 20.2 mol %
- phenylacetaldehyde (mol %) generated from precursor [1, 8]: 0.3 mol %
- phenylacetaldehyde (mol %) generated from precursor ([1]; Control experiment without addition of water, listed as 2-methylphenyl-5-methyl-2-oxazoline isomer II): 0.3 mol %
- isomer I (formed) (mol %) [1, 10]: 1.8 mol %
- isomer II (unreacted) (mol %) [1, 10]: 98.2 mol %
SMILES: Cc1ccccc1C1N=CC(C)O1 (single isomer, unassigned; isomer ii) [2-methylphenyl-5-methyl-3-oxazoline isomer II, 2-methylphenyl-5-methyl-3-oxazoline]

- Concentration in “release sample” (after addition of saliva) [2]: 3009 μg/kg of chocolate
- Concentration in blank sample (prior addition of saliva) [2]: 354 μg/kg of chocolate
- release from spiked chocolate after addition of water or saliva (PTR-MS) [3]: clearly increased
SMILES: CCC(C)C=O (centres unmarked) [2-methylbutanal]

- phenylacetaldehyde (mol %) generated from precursor ([4]; pH 5, Control without addition of buffer solution): 0.4 mol %
- phenylacetaldehyde (mol %) generated from precursor ([4]; pH 5 buffer, 5 min, 37° C.): 41.2 mol %
- phenylacetaldehyde (mol %) generated from precursor ([4]; pH 5 buffer, 15 min, 37° C.): 72.1 mol %
- phenylacetaldehyde (mol %) generated from precursor ([4]; pH 5 buffer, 30 min, 37° C.): 87.7 mol %
- phenylacetaldehyde (mol %) generated from precursor ([4]; pH 7, Control without addition of buffer solution): 0.3 mol %
- phenylacetaldehyde (mol %) generated from precursor ([4]; pH 7 buffer, 5 min, 37° C.): 7.7 mol %
- phenylacetaldehyde (mol %) generated from precursor ([4]; pH 7 buffer, 15 min, 37° C.): 18.0 mol %
- phenylacetaldehyde (mol %) generated from precursor ([4]; pH 7 buffer, 30 min, 37° C.): 30.2 mol %
- phenylacetaldehyde (mol %) generated from precursor ([4]; pH 9, Control without addition of buffer solution): 0.3 mol %
- phenylacetaldehyde (mol %) generated from precursor ([4]; pH 9 buffer, 5 min, 37° C.): 4.9 mol %
- phenylacetaldehyde (mol %) generated from precursor ([4]; pH 9 buffer, 15 min, 37° C.): 7.1 mol %
- phenylacetaldehyde (mol %) generated from precursor ([4]; pH 9 buffer, 30 min, 37° C.): 14.3 mol %
SMILES: Cc1ccccc1C1N=CC(C)O1 (centres unmarked) [2-methylphenyl-5-methyl-3-oxazoline]

- Concentration in “release sample” (after addition of saliva) [2]: 4456 μg/kg of chocolate
- Concentration in blank sample (prior addition of saliva) [2]: 502 μg/kg of chocolate
- release from spiked chocolate after addition of water or saliva (PTR-MS) [3]: clearly increased
SMILES: CC(C)CC=O [3-methylbutanal]

Second part, the molecule before the results:

SMILES: CC1C=NC(C(C)C)O1 (single isomer, unassigned) [2-(1-methylethyl)-5-methyl-3-oxazoline]
- methylpropanal (mol %) generated from precursor [1, 5]: 46.0 mol %
- methylpropanal (mol %) generated from precursor [1, 6]: 53.5 mol %
- methylpropanal (mol %) generated from precursor [1, 7]: 56.1 mol %
- methylpropanal (mol %) generated from precursor [1, 8]: 0.1 mol %

SMILES: CCC(C)C1N=CC(C)O1 (single isomer, unassigned) [2-(1-methylpropyl)-5-methyl-3-oxazoline]
- 2-methylbutanal (mol %) generated from precursor [1, 5]: 14.6 mol %
- 2-methylbutanal (mol %) generated from precursor [1, 6]: 33.3 mol %
- 2-methylbutanal (mol %) generated from precursor [1, 7]: 55.6 mol %
- 2-methylbutanal (mol %) generated from precursor [1, 8]: 1.1 mol %

SMILES: CC(C)CC1N=CC(C)O1 (single isomer, unassigned) [2-(2-methylpropyl)-5-methyl-3-oxazoline isomer I, 2-(2-methylpropyl)-5-methyl-3-oxazoline]
- 3-methylbutanal (mol %) generated from precursor [1, 5]: 72.7 mol %
- isomer I (unreacted) (mol %) ([1]; 5 min, water 37° C.): 16.2 mol %
- isomer II (formed) (mol %) ([1]; 5 min, water 37° C.): 5.1 mol %
- 3-methylbutanal released / precursor converted to Strecker aldehyde ([1]; 5 min after addition of water at 37° C.): 73%
- 3-methylbutanal (mol %) generated from precursor [1, 6]: 82.4 mol %
- isomer I (unreacted) (mol %) ([1]; 15 min, water 37° C.): 8.4 mol %
- isomer II (formed) (mol %) ([1]; 15 min, water 37° C.): 10.2 mol %
- 3-methylbutanal (mol %) generated from precursor [1, 7]: 91.1 mol %
- isomer I (unreacted) (mol %) ([1]; 30 min, water 37° C.): 2.9 mol %
- isomer II (formed) (mol %) ([1]; 30 min, water 37° C.): 4.3 mol %
- 3-methylbutanal (mol %) generated from precursor [1, 9]: 0.3 mol %
- isomer I (unreacted) (mol %) [1, 10]: 98.1 mol %
- isomer II (formed) (mol %) [1, 10]: 1.9 mol %
- corresponding isomer II formed from purified isomer I ([1]; after 5 min, water 37° C.): 5%
- 3-methylbutanal released ([1]; after 15 min, water 37° C.): > 80%
- 3-methylbutanal released ([1]; after 30 min, water 37° C.): > 90% and 91%

SMILES: CC(C)CC1N=CC(C)O1 (single isomer, unassigned) [2-(2-methylpropyl)-5-methyl-3-oxazoline isomer II, 2-(2-methylpropyl)-5-methyl-3-oxazoline]
- 3-methylbutanal (mol %) generated from precursor [1, 5]: 72.5 mol %
- isomer I (formed) (mol %) ([1]; 5 min, water 37° C.): 3.0 mol %
- isomer II (unreacted) (mol %) ([1]; 5 min, water 37° C.): 25.7 mol %
- 3-methylbutanal (mol %) generated from precursor [1, 6]: 81.4 mol %
- isomer I (formed) (mol %) ([1]; 15 min, water 37° C.): 3.7 mol %
- isomer II (unreacted) (mol %) ([1]; 15 min, water 37° C.): 16.7 mol %
- 3-methylbutanal (mol %) generated from precursor [1, 7]: 92.2 mol %
- isomer I (formed) (mol %) ([1]; 30 min, water 37° C.): 2.2 mol %
- isomer II (unreacted) (mol %) ([1]; 30 min, water 37° C.): 7.2 mol %
- 3-methylbutanal (mol %) generated from precursor [1, 9]: 0.4 mol %
- isomer I (formed) (mol %) [1, 10]: 1.7 mol %
- isomer II (unreacted) (mol %) [1, 10]: 98.3 mol %

SMILES: CC(C)C=O [methylpropanal]
- Concentration in “release sample” (after addition of saliva) [2]: 1103 μg/kg of chocolate
- Concentration in blank sample (prior addition of saliva) [2]: 25.4 μg/kg of chocolate
- release from spiked chocolate after addition of water or saliva (PTR-MS) [3]: clearly increased

SMILES: O=CCc1ccccc1 [phenylacetaldehyde]
- Concentration in “release sample” (after addition of saliva) [2]: < LoD (due to headspace
- Concentration in blank sample (prior addition of saliva) [2]: < LoD (due to headspace
- release from spiked chocolate after addition of water or saliva (PTR-MS) [3]: clearly increased
